In patent US20190032014A1, “USING MICROBIOTA METABOLITES TO DIFFERENTIATE NAÏVE T-CELLS AND RELATED METHODS TO INDUCE OR PREVENT INFLAMMATORY CONDITIONS” (THE TEXAS A&M UNIVERSITY SYSTEM, priority 2016, published 2019):
Entries after “also recorded” stand apart in the source; their conditions may differ. Where two headings read alike, the source gives them in different places.

Assays:
[1] = system: Th17 transfer colitis; experiment: Th17 transfer colitis murine model; format: in vivo, Rag-null mice
Protocol: Finally, the presentation describes a study of the effects of an indole-induced iTreg skew on the course of colitis in a Th17 transfer colitis murine model. […] Briefly, naïve T-cells (CD4+CD25−) were cultured in vitro with cytokines to skew function towards a Th17 phenotype, in the presence of indole or 5-HI, or not. The skewed cultures were transferred to Rag-null mice (lack T- and B-lymphocytes); control mice received no T-cells. Mice were monitored for weight loss (as a measure of inflammation) over several weeks and assessed at indicated timepoints for T-cell phenotype.
The body weight of the mice was monitored from the time of cell transfer to the end point of day 49. […] Next, the Treg, Th17, and Th1 differentiation was assessed in cells obtained from the mesenteric lymph nodes (MLN) of mice administered directly with indole, 5-HI and control. These cells were determined/assayed by FACS for phenotype directly ex vivo from mice that were treated as in FIG. 28.

[2] = system: T cells of spleen and mesenteric lymph nodes; experiment: In vivo acute T cell activation (αCD3) in spleen and MLN; design: species or system mice; conditions: administered with αCD3 at 0 and 48 hrs
Protocol: After 52 additional hours, the spleens were harvested and homogenized. Cells were plated, stimulated with PMA/lonomycin, stained for the indicated T cell markers, and subjected to FACS analysis. The graphs show the % IFN-γ+ CD4+ cells (FIG. 26A), the % IFN-γ+ CD4+ CD44^low cells (FIG. 26B), and the % IFN-γ+ CD4+ CD44^high cells (FIG. 26C) resulting from the various treatments. […] The graphs show the % IFN γ+ CD4+ cells (FIG. 27A), the % IFN γ+ CD4+ CD44low cells (FIG. 27B), and the % IFN γ+ CD4+ CD44high cells (FIG. 27C) resulting from the various treatments.
Fifteen μg of αCD3 (BioXcell clone 145-2C11) was administered via intra-peritoneal injection at 0 and 48 hours. […] At 52 hours, spleen and mesenteric lymph nodes were isolated and plated individually at a concentration of 1×10^6 cells/well with RPMI media supplemented with 2-mercaptoethanol, gentamicin, penicillin, and streptomycin+10% FCS (all from Life Technologies) in a 96-well round bottom plate (Falcon). Cells were immediately stimulated for 4 hours and stained. Specifically, for the last four hours of culture, cells were treated with golgi plug (BD), PMA and ionomycin (both from Sigma-Aldrich).

[3] = system: naïve T cells obtained from humans; experiment: Skewing of naïve T cells obtained from humans; format: cell-based
[4] = system: NF-κB; conditions: intestinal epithelial cells (IECs); Bansal et al. 2010; cited from earlier work
[5] = system: TGF-β receptor / pSMAD2/3; experiment: TGF-β receptor expression and SMAD2/3 activity; format: cell-based
Protocol: Indole and 5-HI were assessed for impact on TGF-β receptor expression and SMAD2/3 activity. […] Indole and 5-HI were also assessed for impact on IL-6 receptor levels and subsequent STAT3 activity.

[6] = system: iTregs
Protocol: For example, TDMM- and control-induced Treg cultures from CD4+ CD25− GFP− naïve T cells of FOXP3EGFP mice are sorted based on GFP fluorescence. GFP+ cells (˜1×10^6 cells/mL) are cultured in the presence of pro-inflammatory cytokines IL-1, IL-6, IL-21 and IL-23 ±TCR stimulation on an anti-CD3/CD28 mAb coated plate for 24, 48 and 72 hours [Yang, X. O., et al., Immunity 29(1): p. […] Next, the stability (as measured by expression of FOXP3, RORγT, TGF-β, IL-10, IL-35 and IL-17) of TDMM-conditioned Tregs is analyzed compared to control-induced Tregs by ELISA of supernatants or 4 h treatment with Golgi plug (for cytokine staining) and subsequent intracellular staining with fluorophore-conjugated mAbs and flow cytometry.

[7] = system: CD4+ CD25− naïve T cells; experiment: In vitro naïve T cell differentiation, Th17-skew (IL-17+ by FACS); format: cell-based, C57BL/6 mice; conditions: for effect on % IL-17+ cells / Th17 differentiation: vs DMF control
Protocol: (§1) Mesenteric lymph node (MLN) and spleen are harvested from WT or FOXP3^EGFP C57Bl/6 mice and homogenized. Spleen tissue is subjected to red blood cell lysis and pooled into a single cell suspension for counting. Counted cells are resuspended in sterile FACS buffer (PBS++ with 05% bovine serum albumin) at a concentration of ˜5×10^7 cells/mL and stained for 45 minutes at 4° C. with anti-CD4 and anti-CD25 fluorophore-conjugated monoclonal antibodies (mAb). After two washes, the stained cells are resuspended at ˜6×10^6 cells/mL in FACS buffer and immediately sorted. […] TDMMs are solubilized in DMF at 2 M and used at desired concentrations (e.g., 0.01, 0.1, 0.5 and 1.0 mM) in growth media; DMF in growth media (0.05%) is used as a solvent control.
(§2) The % of Treg or Th17 cells are determined based on the expression of signature transcription factors, FoxP3 and Rorγt, respectively. In addition, signature cytokine markers for Treg and Th17, TGFβ or IL-17, respectively, among others are measured using intracellular cytokine staining. Since it is possible that a cell could be positive for FoxP3 and still express some IL-17, the final % of Tregs are determined as the cell population that is FoxP3+TGFβ+ Rorγt-IL-17−. Similarly, the % of Th17 cells are determined as the population that is FoxP3-TGFβ− Rorγt+IL-17+.
(§3) CD4+ CD25− T cells were isolated to high purity (>98%) from the pooled spleen and mesenteric lymph nodes of C57BL/6 mice (Jackson Labs) with a BD FACS Aria II flow cytometer. Fc Block (BD), αCD4-efluor450 (eBioscience clone GK1.5) and αCD25-PECy7 (eBioscience clone PC61.5) antibodies were used for staining before sorting.
(§4) For Th1-skew: 5 ng/mL IL-12 (Peprotech cat. #210-12) and 10 µg/mL αIL-4 (BioXCell clone 11B11) were added to culture. For Th2-skew: 10 ng/mL IL-4 (Peprotech) and 10 μg/mL αIFN-γ (BioXCell clone R4-6A2) were added to culture. For Th17-skew: 10 ng/mL IL-6 (Peprotech), 5 ng/mL IL-23 (R&D), 0.5 ng/mL TGF-β (Peprotech), 10 μg/mL al-4 (BioXCell clone 11B11), and 10 μg/mL αIFN-γ (BioXCell clone R4-6A2) were added to culture. For Treg-skew: 2 ng/mL TGF-β (Peprotech) and 100 U/mL IL-2 (Roche) were added to culture. Sodium Propionate, sodium acetate, sodium butyrate and sodium chloride (all from Sigma-Aldrich) were solubilized in media and added to culture. Indole was solubilized in DMF (both from Sigma-Aldrich) at 2M and brought to final concentration in media. MGCD0103 (Selleck Chemicals) was solubilized in DMF at 2 mM and brought to final concentration in media. A 0.05% DMF solvent control was used for all experiments.

[8] = system: CD4+ CD25− naïve T cells; experiment: In vitro naïve T cell differentiation, Treg-skew (FoxP3+ by FACS); format: cell-based, C57BL/6 mice; conditions: for effect on % FoxP3+ cells / Treg differentiation: vs DMF control; for % FoxP3+ cells: indole less than 500 μM
Protocol: as §1, §2, §3, §4

[9] = MLN, D15 and D45, by the end point

With `c1ccc2[nH]ccc2c1` [Indole, indole] as the compound, how does the “Treg differentiation in vivo (% FoxP3+ T cells and FoxP3+ levels, MLN)” value ([1]; MLN, D15 and D45) read?
Its value is “induced early differentiation of Treg differentiation in vivo”.

And the “Th1 differentiation in vivo (% INF-γ+ T cells, Th1/Treg balance, MLN)” value [1, 9]?
The value was “suppresses Th1 differentiation in vivo”.

And the “Th17 differentiation in vivo (% IL-17+ T cells, Th17/Treg balance, MLN)” value [1, 9]?
The value was “suppresses Th17 differentiation in vivo”.

And the “weight change (% from starting weight)” value ([1]; mice receiving conditioned Th17 T cells, around day 43, end point day 49)?
Its value is “increase in body weight”.

And the “Th17 transfer colitis in vivo (overall)” value ([1]; mouse, in vivo)?
The value was “inhibits the Th17 transfer colitis in vivo”.

What about the “Treg differentiation in vivo (MLN)” value ([2]; mesenteric lymph nodes) of the same compound?
The value was “synergizes with butyrate for the induction of Treg cells in vivo; also recorded: can augment Treg development in vivo when administered to the subject directly”.

What about the “Th1 differentiation in vivo (% IFN-γ+ CD4+ cells, spleen)” value ([2]; spleen) of the same compound?
Its value is “suppresses butyrate induction of Th1 cells in vivo”.

And the “skewing effects on Tregs and Th17 cells in human cells” value [3]?
The value was “recapitulated on naïve T cells obtained from humans”.

What about the “NF-κB activation and indicators of inflammation” value [4] of the same compound?
The value was “inhibits NF-κB activation and attenuates indicators of inflammation”.

And the “% pSMAD2/3+ cells” value ([5]; TGF-β induced, vs 5-HI or DMF control)?
The value was “higher”.

What about the “% TGF-β receptor+ cells” value ([5]; vs DMF control) of the same compound?
Its value is “significantly increase”.

What about the FoxP3 expression ([6]; control (DMF induced) iTregs in the presence of indole, after TCR stimulation (αCD3/28), without indole 9.3%) of the same compound?
Its FoxP3 expression is 26.1%.

What about the FoxP3 expression ([6]; control (DMF induced) iTregs in the presence of indole, first value, before TCR stimulation) of the same compound?
Its FoxP3 expression is 52.8%.

What about the FoxP3 expression ([6]; indole-induced iTregs cultured three days with 1 mM indole, first value) of the same compound?
Its FoxP3 expression is 64.2%.

What about the FoxP3 expression ([6]; indole-induced iTregs cultured three days with 1 mM indole, second value, after TCR stimulation) of the same compound?
The FoxP3 expression was 52.2%.

What about the FoxP3 expression ([6]; indole-induced iTregs cultured three days with DMF, first value) of the same compound?
Its FoxP3 expression is 63%.

What about the FoxP3 expression ([6]; indole-induced iTregs cultured three days with DMF, second value, after TCR stimulation) of the same compound?
Its FoxP3 expression is 24.9%.

And the “expansion of Th17 cells (proportion)” value ([7]; 1 mM indole, Th17-skewing conditions, solvent control 13.5%)?
Its value is 1.4%.

What about the “% IL-17+ cells, indole added to butyrate and 5-HI” value ([7]; Th17 skewing conditions) of the same compound?
Its value is “generally reversed after conditioning with indole”.

What about the “% IL-17+ cells, indole combined with 5-HI” value ([7]; Th17 skewing conditions, vs 5-HI alone) of the same compound?
The value was “not just negated, but actually reversed”.

What about the “effect on % IL-17+ cells / Th17 differentiation” value ([7]; Th17 skewing conditions) of the same compound?
Its value is “significantly decreased the % of IL-17+ cells”.

And the “effect on % IL-17+ cells / Th17 differentiation” value ([7]; Th17 skewing conditions, listed as indole)?
The value was “dose-dependent; also recorded: inhibits a Th17 response; also recorded: inhibits the development of illustrates % IL-17+ cells”.

What about the “Rorγt expression in Th17 cells” value ([7]; unpublished data) of the same compound?
Its value is “inhibits Rorγt expression in Th17 cells”.

What about the “level of IL-17 expression (MFI)” value ([7]; vs solvent control) of the same compound?
The value was “decreased”.

And the “increase in the % of FOXP3+ cells compared to cells exposed to 1 mM indole” value ([8]; 750 μM indole, absence of IL-4)?
The value was 4%.

What about the “proportion of FoxP3+ iTregs” value ([8]; 1 mM indole, Treg skewing conditions, solvent control 25%) of the same compound?
Its value is 68.8%.

And the “% FoxP3+ cells with reduced / titrated TGF-β” value ([8]; TGF-β below threshold for Treg induction, low and high titrations)?
The value was “Treg induction occurs notwithstanding low levels of TGF-β; also recorded: increased the % FoxP3+ cells”.

And the “FoxP3 induction under Th0 conditions” value ([8]; Th0 conditions (no TGF-β))?
Its value is “induced FoxP3 even under Th0 conditions”.

And the “% FoxP3+ cells, indole, butyrate and 5-HI all combined” value ([8]; Treg skewing conditions)?
The value was “the % FoxP3+ increased again”.

And the “% FoxP3+ cells, indole combined with 5-HI” value ([8]; Treg skewing conditions, vs 5-HI alone)?
Its value is “negated the inhibitory effects of 5-HI on % FoxP3+ cells”.

What about the “effect on % FoxP3+ cells / Treg differentiation” value ([8]; Treg skewing conditions) of the same compound?
Its value is “significantly increased the % of FoxP3+ cells”.

What about the “effect on % FoxP3+ cells / Treg differentiation” value ([8]; Treg skewing conditions, listed as indole) of the same compound?
The value was “dose-dependent; also recorded: strong pro-Treg response; also recorded: significantly increased the % FoxP3+ cells”.

And the “% FoxP3+ cells” value ([8]; IL-4 6 ng/mL)?
The value was 25%.

What about the “% FoxP3+ cells” value ([8]; IL-4 10 ng/mL) of the same compound?
Its value is 28%.

What about the “per-cell expression of FOXP3 (GFP)” value ([8]; indole-induced iTregs, pre- and post-sort, 72 hours) of the same compound?
Its value is “higher per-cell expression of FOXP3 (GFP) both pre- and post-sort”.

What about the “expansion of Tregs (Foxp3+ %) at standard TGF-β dose” value ([8]; standard TGF-β dose) of the same compound?
The value was “doubles”.

And the “level of FoxP3 expression (MFI)” value ([8]; vs solvent control)?
Its value is “significantly increased”.
